Experimental data from publication PMC11949107, “Polyunsaturated fatty acids and their endocannabinoid-related metabolites activity at human TRPV1 and TRPA1 ion channels expressed in HEK-293 cells” (PeerJ, 2025).
Several values for one entry are separate records, joined by “and”; a condition that tells them apart may be missing. Identical values can stand only once.

Legend:
human TRPV1 = target: T1, human TRPV1 (Homo sapiens, UniProt Q8NER1); experiment: Calcium 5 dye [Ca]i assay in HEK-293 Flp-In T-REx cells expressing TRPV1 (agonist response); type: cell-based; conditions: for Elevation of [Ca]i in HEK-293 TRPV1 cells compared with HEK-293 EV cells / Change of Ca5 fluorescence, Mean ± SEM, TRPV1 (10 µM): 10 µM; for Change of Ca5 fluorescence, Mean ± SEM, TRPV1 (10 µM): HEK-293 TRPV1 cells, percentage of predrug baseline; for TRPV1 response, Mean± SEM (N): 30 µM, one-way ANOVA comparison with capsaicin 10 µM; for Emax at 30 µM: HEK293, read-out: Emax ± SEM % TRPV1 (30 µM); for Change in Ca5 fluorescence, individual experiments (CRC raw data): TRPV1 cells
T1 construct: Life Technologies (cells); host or cells: Flp-In T-REx HEK-293
Experimental: (§1) The cells were incubated in a 5% CO2 humidified atmosphere at 37 °C. Upon reaching approximately 90% confluence in 75 cm^2 flasks, they were trypsinized and transferred to poly-D-lysine coated 96-well plates (Corning, Castle Hill, NSW, Australia) in L-15 medium supplemented with 1% FBS, 100 U penicillin and 100 µg streptomycin ml^−1 (1% P/S), and 15 mM glucose (80 µL volume per well). After an overnight incubation (maximum of 16 h) in humidified room air at 37 °C, TRPV1 and TRPA1 receptor expression was induced 4 h before experimentation by adding to each well 10 µL tetracycline solution to a final concentration of 1 µg ml^−1.
(§2) Intracellular calcium [Ca]i levels were assessed using the calcium 5 kit from Molecular Devices (# R8186, Sunnyvale, CA, USA) on a FlexStation 3 Microplate Reader (Molecular Devices, Sunnyvale, CA, USA). […] Probenecid (cat # 50027; Biotium) which helps to prevent expulsion of calcium indicator from the cells was added to a final concentration of 1.25 mM. 90 µL of the dye were loaded into each well of the plate and incubated for 1 h before reading in the FlexStation 3 at 37 °C. Fluorescence was recorded every 2 s (λ excitation = 485 nm, λ emission = 525 nm) for 5 min. After 1 min of baseline recording, 20 µL of the drug, dissolved in HBSS with 1% dimethyl sulfoxide (DMSO) (cat # D2650; Sigma-Aldrich, Melbourne, Australia) was added (final DMSO concentration was 0.1% in well).
(§3) The response to agonists was expressed as a percentage change from the average baseline measurement taken for 60s before adding drug. Changes in fluorescence resulting from the addition of solvent were subtracted before normalization to baseline. Concentration–response curves (CRC), Emax and EC50 values were determined using a three-parameter logistic equation (GraphPad Prism, San Diego, CA, USA). […] Potencies were expressed as pEC50, which is the negative log of EC50 in moles per litre (Molar). Where appropriate, unpaired Student’s t-test were used to compare the responses of individual compounds in different conditions, while a one-way ANOVA followed by Dunnett’s multiple comparisons test was used to assess potential differences in responses elicited by a range of compounds. P < 0.05 was considered statistically significant.

human TRPA1 = target: T2, human TRPA1 (Homo sapiens, UniProt O75762); experiment: Calcium 5 dye [Ca]i assay in HEK-293 Flp-In T-REx cells expressing TRPA1 (agonist response); type: cell-based; conditions: for Elevation of [Ca]i in HEK-293 TRPA1 cells compared with HEK-293 EV cells: 10 µM (cinnamaldehyde 300 µM); for Change of Ca5 fluorescence, Mean ± SEM, TRPA1 (10 µM): HEK-293 TRPA1 cells, percentage of predrug baseline; for TRPA1 activation at the highest concentration tested / TRPA1 response compared with the highest concentration of cinnamaldehyde (300 µM) / TRPA1 response, Mean± SEM (N): 30 µM; for TRPA1 response, Mean± SEM (N): one-way ANOVA comparison with cinnamaldehyde 300 µM; for Emax at 30 µM: HEK293, read-out: Emax ± SEM % TRPA1 (30 µM); for [Ca]i response (change in fluorescence), individual replicates: sheet Figure 3(E); for Change in Ca5 fluorescence, individual experiments (CRC raw data): TRPA1 cells
T2 construct: Life Technologies (cells); host or cells: Flp-In T-REx HEK-293
Experimental: as §1, §2, §3

HEK-293 EV cells = experiment: Calcium 5 dye [Ca]i assay in HEK-293 empty vector (EV) cells; type: cell-based, human; conditions: 10 µM
Experimental: as §1
Intracellular calcium [Ca]i levels were assessed using the calcium 5 kit from Molecular Devices (# R8186, Sunnyvale, CA, USA) on a FlexStation 3 Microplate Reader (Molecular Devices, Sunnyvale, CA, USA). […] 90 µL of the dye were loaded into each well of the plate and incubated for 1 h before reading in the FlexStation 3 at 37 °C. […] After 1 min of baseline recording, 20 µL of the drug, dissolved in HBSS with 1% dimethyl sulfoxide (DMSO) (cat # D2650; Sigma-Aldrich, Melbourne, Australia) was added (final DMSO concentration was 0.1% in well).
as §3

[1] = HEK-293 EV cells, percentage of predrug baseline

T1 sequence (Q8NER1 whole entry): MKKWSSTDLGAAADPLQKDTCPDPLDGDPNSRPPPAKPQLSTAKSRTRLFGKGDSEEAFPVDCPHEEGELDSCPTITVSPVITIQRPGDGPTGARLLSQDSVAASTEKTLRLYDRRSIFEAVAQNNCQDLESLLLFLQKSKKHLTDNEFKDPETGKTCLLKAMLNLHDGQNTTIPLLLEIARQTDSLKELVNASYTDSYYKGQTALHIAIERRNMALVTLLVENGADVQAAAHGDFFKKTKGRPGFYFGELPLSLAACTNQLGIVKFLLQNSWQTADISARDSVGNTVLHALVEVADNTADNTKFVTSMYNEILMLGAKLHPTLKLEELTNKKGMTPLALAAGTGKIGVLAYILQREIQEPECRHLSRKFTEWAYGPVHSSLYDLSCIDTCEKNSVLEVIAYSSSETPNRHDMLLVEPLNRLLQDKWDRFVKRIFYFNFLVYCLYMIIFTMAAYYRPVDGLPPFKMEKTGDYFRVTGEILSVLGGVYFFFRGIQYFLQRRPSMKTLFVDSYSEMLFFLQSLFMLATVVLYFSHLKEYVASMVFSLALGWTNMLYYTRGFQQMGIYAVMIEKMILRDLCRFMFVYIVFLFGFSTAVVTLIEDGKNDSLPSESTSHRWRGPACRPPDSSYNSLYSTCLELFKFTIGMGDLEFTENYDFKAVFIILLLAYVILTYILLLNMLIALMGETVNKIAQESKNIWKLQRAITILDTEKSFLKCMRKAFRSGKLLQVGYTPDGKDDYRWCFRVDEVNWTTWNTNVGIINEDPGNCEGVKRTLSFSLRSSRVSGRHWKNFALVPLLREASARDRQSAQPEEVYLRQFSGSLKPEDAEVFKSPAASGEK
T2 sequence (O75762 whole entry): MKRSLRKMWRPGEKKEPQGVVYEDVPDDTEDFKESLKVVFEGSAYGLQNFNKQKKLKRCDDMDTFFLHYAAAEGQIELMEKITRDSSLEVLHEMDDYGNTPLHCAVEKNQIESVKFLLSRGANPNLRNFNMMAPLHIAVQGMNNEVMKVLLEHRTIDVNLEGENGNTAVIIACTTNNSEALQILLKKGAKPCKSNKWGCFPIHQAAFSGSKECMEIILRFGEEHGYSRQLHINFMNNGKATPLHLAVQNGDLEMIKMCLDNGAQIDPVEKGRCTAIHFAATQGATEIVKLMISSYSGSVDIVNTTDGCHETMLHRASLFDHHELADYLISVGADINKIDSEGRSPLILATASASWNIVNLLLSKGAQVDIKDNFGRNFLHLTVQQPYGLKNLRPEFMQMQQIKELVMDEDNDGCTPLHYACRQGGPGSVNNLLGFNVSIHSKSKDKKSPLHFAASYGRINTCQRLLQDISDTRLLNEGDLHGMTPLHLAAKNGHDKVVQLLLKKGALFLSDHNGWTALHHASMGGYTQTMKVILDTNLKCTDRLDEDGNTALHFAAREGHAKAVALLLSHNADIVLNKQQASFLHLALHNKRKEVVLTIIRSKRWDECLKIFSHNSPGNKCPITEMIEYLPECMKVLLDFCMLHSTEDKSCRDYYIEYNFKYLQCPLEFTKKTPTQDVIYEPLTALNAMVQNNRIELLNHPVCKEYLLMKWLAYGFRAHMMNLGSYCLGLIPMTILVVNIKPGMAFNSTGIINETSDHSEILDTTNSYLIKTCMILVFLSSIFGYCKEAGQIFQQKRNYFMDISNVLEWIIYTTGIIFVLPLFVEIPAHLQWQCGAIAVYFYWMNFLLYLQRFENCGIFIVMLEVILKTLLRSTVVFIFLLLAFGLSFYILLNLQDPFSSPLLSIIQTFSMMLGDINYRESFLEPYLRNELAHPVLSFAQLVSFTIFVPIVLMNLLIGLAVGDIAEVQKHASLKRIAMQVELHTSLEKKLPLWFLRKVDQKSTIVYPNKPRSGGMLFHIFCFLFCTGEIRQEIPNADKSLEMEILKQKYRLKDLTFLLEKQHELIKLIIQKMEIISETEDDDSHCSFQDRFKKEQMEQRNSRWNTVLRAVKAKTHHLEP

Structure (SMILES) | Elevation of [Ca]i in HEK-293 TRPV1 cells compared with HEK-293 EV cells (human TRPV1) | Change of Ca5 fluorescence, Mean ± SEM, TRPV1 (10 µM) (human TRPV1) | TRPV1 response, Mean± SEM (N) (human TRPV1) | Emax at 30 µM (human TRPV1) | Change in Ca5 fluorescence, individual experiments (CRC raw data) (human TRPV1; log concentration -4.52288 (M)) | Change in Ca5 fluorescence, individual experiments (CRC raw data) (human TRPV1; log concentration -5 (M)) | Change in Ca5 fluorescence, individual experiments (CRC raw data) (human TRPV1; log concentration -5.52288 (M)) | Change in Ca5 fluorescence, individual experiments (CRC raw data) (human TRPV1; log concentration -6 (M)) | Change in Ca5 fluorescence, individual experiments (CRC raw data) (human TRPV1; log concentration -6.52288 (M)) | Change in Ca5 fluorescence, individual experiments (CRC raw data) (human TRPV1; log concentration -7 (M)) | Elevation of [Ca]i in HEK-293 TRPA1 cells compared with HEK-293 EV cells (human TRPA1) | Change of Ca5 fluorescence, Mean ± SEM, TRPA1 (10 µM) (human TRPA1) | TRPA1 activation at the highest concentration tested (human TRPA1) | TRPA1 response compared with the highest concentration of cinnamaldehyde (300 µM) (human TRPA1) | TRPA1 response, Mean± SEM (N) (human TRPA1) | Emax at 30 µM (human TRPA1) | [Ca]i response (change in fluorescence), individual replicates (human TRPA1; concentration -4.52288 (log)) | [Ca]i response (change in fluorescence), individual replicates (human TRPA1; concentration -5 (log)) | [Ca]i response (change in fluorescence), individual replicates (human TRPA1; concentration -5.52288 (log)) | [Ca]i response (change in fluorescence), individual replicates (human TRPA1; concentration -6 (log)) | other results
CCCCC/C=C\C/C=C\C/C=C\C/C=C\CCCC(=O)OC(CO)CO [2-AG, 2-arachidonoylglycerol] | did not produce a notable change | 30 ± 12% | 78± 56 | 78 ± 26% | 27.3329 and 112.734 and 162.217 and 44.4524 and 123.109 and 0.2559 | 7.357 and 86.123 and 26.0517 and 22.0298 and 37.7022 and 3.715 | 1.982 and 59.8686 and 3.625 and 7.304 and 11.7183 and 5.763 | 3.178 and 11.4308 and 1.524 and 2.296 and 1.51 and 5.0359 | 2.799 and 5.91 and 1.131 and 13.0737 and 2.188 and 2.217 | 3.868 and 2.533 and 1.007 and 9.752 and 4.95 and 2.563 | did not produce a change | 6 ± 1% | activated TRPA1 | significantly smaller | 109 ± 60 | 109 ± 68% | 14.9622 and 7.179 and 134.366 and 9.127 and 431.447 and 54.77 | 4.64 and 4.022 and 10.3661 and 3.3919 and 6.211 and 4.731 | 6.153 and 3.314 and 8.987 and 3.008 and 4.615 and 3.811 | 6.477 and 4.178 and 4.8275 and 2.1815 and 3.7711 and 3.334 | [Ca]i response (change in fluorescence), individual replicates (human TRPA1; concentration -6.52288 (log)): 5.571 and 5.908 and 5.712 and 6.071 and 7.256 and 4.936; [Ca]i response (change in fluorescence), individual replicates (human TRPA1; concentration -7 (log)): 4.596 and 9.253 and 10.2641 and 5.393 and 9.276 and 4.379; Change of Ca5 fluorescence, Mean ± SEM, EV (10 µM) (HEK-293 EV cells; [1]): 4 ± 2%
CCCCC/C=C\C/C=C\CCCCCCCC(=O)OC(CO)CO [2-LG, 2-linoleoyl glycerol] | significantly greater | 41 ± 13 % | 75± 56 | 75 ± 13% | 94.4158 and 105.55 and 25.614 and 76.6153 and 45.9507 and 101.137 | 77.397 and 64.9743 and 11.4263 and 68.0539 and 10.4174 and 14.0616 | 11.4427 and 8.3913 and 3.912 and 22.8641 and 8.0659 and 6.3713 | 1.494 and 8.29 and 4.971 and 3.518 and 4.176 and 6.083 | -0.2355 and 4.786 and 26.5089 and 15.6203 and 3.581 and 2.28 | 0.8392 and 7.338 and 6.807 and 12.2096 and 4.264 and 3.998 | – | 6 ± 2% | no effect | significantly smaller | 10± 60 | 10 ± 4% | – | – | – | – | Change in Ca5 fluorescence, individual experiments (CRC raw data) (human TRPA1; log concentration -4.52288 (M)): 12.5375 and 5.756 and 5.697 and 4.08 and 3.702 and 27.8122; Change in Ca5 fluorescence, individual experiments (CRC raw data) (human TRPA1; log concentration -5 (M)): 11.4202 and 3.2095 and 1.996 and 7.055 and 3.7574 and 11.3273; Change in Ca5 fluorescence, individual experiments (CRC raw data) (human TRPA1; log concentration -5.52288 (M)): 11.369 and 3.556 and 1.657 and 5.485; Change in Ca5 fluorescence, individual experiments (CRC raw data) (human TRPA1; log concentration -6 (M)): 12.4294 and 3.284 and 5.41 and 5.662 and 4.232 and 5.177; Change in Ca5 fluorescence, individual experiments (CRC raw data) (human TRPA1; log concentration -6.52288 (M)): 12.1064 and 3.832 and 1.455 and 7.527; Change in Ca5 fluorescence, individual experiments (CRC raw data) (human TRPA1; log concentration -7 (M)): 15.3703 and 7.007 and 2.201 and 137.719; Change of Ca5 fluorescence, Mean ± SEM, EV (10 µM) (HEK-293 EV cells): 4 ± 1%
CCCCC/C=C\C/C=C\C/C=C\C/C=C\CCCC(=O)NCCO [AEA, anandamide] | significantly greater | 188 ± 36 % | – | 304 ± 55% | 110.333 and 353.13 and 181.656 and 93.5107 and 312.513 and 324.288 | 107.669 and 250.336 and 142.845 and 78.9426 and 274.449 and 272.34 | 104.24 and 119.191 and 18.6933 and 67.9069 and 43.3725 and 39.8495 | 85.0507 and 18.1779 and 2.315 and 21.1299 and 4.82 and -0.1525 | 25.9314 and 10.5855 and 2.141 and 2.529 and 1.6051 and -0.1939 | 9.794 and 11.1798 and 5.889 and 1.561 and 3.7 and 2.135 | did not produce a change | 78 ± 40% | activated TRPA1 | significantly smaller | 206 ± 60 | 206 ± 60% | 380.839 and 400.035 and 86.0795 and 138.88 and 106.55 and 121.01 | 270.188 and 95.8276 and 43.3617 and 6.8753 and 19.4528 and 34.7169 | 11.1594 and 5.44 and 3.581 and 5.875 | 11.3796 and 3.6077 and 1.689 and 3.893 and 4.817 and 2.419 | EC50 (human TRPV1): 7.94 µM; Maximal TRPV1 response compared with the highest concentration of capsaicin (human TRPV1; 30 µM vs capsaicin 10 µM): did not differ; [Ca]i response (change in fluorescence), individual replicates (human TRPA1; concentration -6.52288 (log)): 9.429 and 4.648 and 1.238 and 3.414; [Ca]i response (change in fluorescence), individual replicates (human TRPA1; concentration -7 (log)): 11.2147 and 3.27 and 3.337 and 2.558; Change of Ca5 fluorescence, Mean ± SEM, EV (10 µM) (HEK-293 EV cells; [1]): 10 ± 2%
